Results from US8268823B2, “Medical use of triazine derivatives” (University of Greenwich, priority 2006, dated 2012).
Where “and” joins values, the source holds several entries; their conditions need not be identical. Identical values can stand only once. Counter-ions that a name gives are not always drawn. Like-named read-outs stand apart in the source and are kept apart here. One block for each compound: values may come before it.

Legend:
sodium channel [1] = experiment: veratrine-evoked uptake of [14C]guanidine into rat forebrain synaptosomes ([14C]guanidine flux); format: biochemical; conditions: for Hill (uptake of [14C]guanidine): slope
hERG potassium channel [2] = target: T1, hERG potassium channel (Homo sapiens, UniProt Q12809); experiment: inhibition of binding of [3H]astemizole to cell membranes expressing hERG
hERG potassium channel [3] = target: T1, hERG potassium channel
[4] = target: T2, DiHydroFolate Reductase (DHFR) (Rattus norvegicus, UniProt Q920D2); experiment: inhibition of binding of [3H]methotrexate to rat liver homogenate supernatant; conditions: for inhibition at 10 µM / inhibition at 99 µM / inhibition at 50 µM: read-out: [3H]methotrexate binding Inhibition (% @ assay conc'n); for inhibition at 99 µM: assay concentration 99 μM; for inhibition at 50 µM: assay concentration 50 μM
T2 construct: from tissue; host or cells: rat liver homogenate supernatant (47,500 x g)
T2 sequence (Q920D2 1-187): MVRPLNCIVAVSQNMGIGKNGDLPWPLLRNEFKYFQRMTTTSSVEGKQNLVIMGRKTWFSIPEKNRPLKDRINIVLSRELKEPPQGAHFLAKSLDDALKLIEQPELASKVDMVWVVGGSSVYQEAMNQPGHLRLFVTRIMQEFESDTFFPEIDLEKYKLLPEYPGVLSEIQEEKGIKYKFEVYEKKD

sodium channel [5] = format: binding, rat
hERG potassium channel [6] = target: T1, hERG potassium channel; experiment: in vitro
[7] = Table 8, read-out: IC50 (μM) (uptake of [14C]guanidine)
[8] = Table 3, rat forebrain synaptosomes, read-out: [14C]guanidine flux Mean (IC50: μM)
[9] = Table 4, tissue prep'n Homogenate, read-out: [3H]BTX-B binding Mean (IC50: μM)
[10] = Table 4, tissue prep'n Synaptosomes, read-out: [3H]BTX-B binding Mean (IC50: μM)

T1 sequence (Q12809 whole entry): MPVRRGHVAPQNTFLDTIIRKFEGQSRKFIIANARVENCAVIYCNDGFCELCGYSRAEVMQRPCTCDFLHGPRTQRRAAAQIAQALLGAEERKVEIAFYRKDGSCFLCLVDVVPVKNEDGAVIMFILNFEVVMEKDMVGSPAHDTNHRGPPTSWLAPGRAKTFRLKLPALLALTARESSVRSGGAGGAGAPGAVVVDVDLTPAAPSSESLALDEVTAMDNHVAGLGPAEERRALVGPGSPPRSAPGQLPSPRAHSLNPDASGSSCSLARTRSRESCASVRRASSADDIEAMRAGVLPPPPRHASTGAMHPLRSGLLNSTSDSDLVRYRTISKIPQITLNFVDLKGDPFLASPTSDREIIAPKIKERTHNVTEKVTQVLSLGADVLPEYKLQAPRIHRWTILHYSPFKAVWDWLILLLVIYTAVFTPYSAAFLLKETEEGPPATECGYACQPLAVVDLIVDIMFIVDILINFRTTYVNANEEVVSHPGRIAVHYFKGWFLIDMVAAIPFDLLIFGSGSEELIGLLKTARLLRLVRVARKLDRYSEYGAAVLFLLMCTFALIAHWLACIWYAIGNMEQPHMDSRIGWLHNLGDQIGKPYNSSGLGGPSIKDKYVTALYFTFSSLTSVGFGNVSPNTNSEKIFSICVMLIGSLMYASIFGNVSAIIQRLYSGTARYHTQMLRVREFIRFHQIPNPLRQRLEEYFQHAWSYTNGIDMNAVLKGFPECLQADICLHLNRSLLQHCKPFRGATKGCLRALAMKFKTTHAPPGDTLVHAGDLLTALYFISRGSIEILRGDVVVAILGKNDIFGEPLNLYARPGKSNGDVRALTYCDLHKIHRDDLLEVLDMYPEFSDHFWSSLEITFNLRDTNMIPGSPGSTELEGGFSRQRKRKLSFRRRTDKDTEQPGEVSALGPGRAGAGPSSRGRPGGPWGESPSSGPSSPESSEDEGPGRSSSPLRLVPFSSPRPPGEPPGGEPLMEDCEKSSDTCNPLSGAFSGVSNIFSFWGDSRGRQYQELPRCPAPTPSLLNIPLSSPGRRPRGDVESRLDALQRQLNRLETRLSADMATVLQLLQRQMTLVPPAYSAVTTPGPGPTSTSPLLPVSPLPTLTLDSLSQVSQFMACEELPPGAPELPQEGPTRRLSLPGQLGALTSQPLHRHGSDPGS

pIC50 (uptake of [14C]guanidine) (sodium channel [1]; Table 8): 2.76 ± 0.11 | IC50 (sodium channel [1]; [7]): 1740 µM | melting point: 148 to 150 °C
SMILES: Nc1nnc(-c2ccccc2OC(F)(F)F)c(N)n1 [Example 51, 3,5-Diamino-6-(2-trifluoromethoxyphenyl)-1,2,4-triazine]
Hill (uptake of [14C]guanidine) (sodium channel [1]; Table 8): 1.22

SMILES: N=c1nc(N)c(-c2cccc(Cl)c2Cl)nn1CCO [Example 5, 5(3)-Amino-6-(2,3-dichlorophenyl)-2,3(2,5)-dihydro-3(5)-imino-2-(2-hydroxyethyl)-1,2,4-triazine]
hERG / [3H]BTX-B selectivity (hERG potassium channel [2]; ratio of extrapolated hERG IC50 to [3H]BTX-B IC50 (synaptosomes)): 4.3 | IC50 (hERG potassium channel [3]): 7.2 µM | hERG / [14C]guanidine flux selectivity (hERG potassium channel [3]): 3.5 | [3H]methotrexate binding Inhibition (% @ assay conc'n) ([4]; assay concentration 10 μM): −1% | [3H]methotrexate binding Inhibition (% @ assay conc'n) ([4]; assay concentration 101 μM): 1% | IC50 (sodium channel [1]; [8]): 172 µM | IC50 (sodium channel [1]; Table 5, read-out: [14C]guanidine flux IC50): 2.1 µM | IC50 (sodium channel [5]; [9]): 7.2 µM | IC50 (sodium channel [5]; [10]): 25.7 µM | IC50 (sodium channel [5]; Table 5, Synaptosome data, read-out: [3H]BTX-B IC50): 1.7 µM

SMILES: CC(C)n1nc(-c2cccc(Cl)c2Cl)c(N)nc1=N [Example 4, 5(3)-Amino-6-(2,3-dichlorophenyl)-2,3(2,5)-dihydro-3(5)-imino-2-isopropyl-1,2,4-triazine]
IC50 (hERG potassium channel [2]): 18.6 µM and 19.4 µM | hERG / [14C]guanidine flux selectivity (hERG potassium channel [3]; human): 6.7 | inhibition at 10 µM ([4]; assay concentration 10 μM): -1% | inhibition at 99 µM [4]: 0% | IC50 (sodium channel [1]; [8]): 4 µM | inhibition at 10 µM (hERG potassium channel [6]; hERG % inhibition @ 10 μM): 35% | selectivity ratio (hERG potassium channel [6]; hERG / [14C]guanidine flux selectivity): 6.6 | IC50 (sodium channel [5]; [9]): 0.6 µM | IC50 (sodium channel [5]; [10]): 1.5 µM

inhibition at 50 µM [4]: 93% | IC50 (sodium channel [1]; [8]): 525 µM | melting point: 228 to 230 °C
SMILES: Nc1nnc(-c2cc(Cl)ccc2Cl)c(N)n1 [Example 41, 3,5-Diamino-6-(2,5-dichlorophenyl)-1,2,4-triazine]

melting point: 297 to 298 °C
SMILES: Cn1nc(-c2cc(Cl)ccc2Cl)c(N)nc1=N (as salt: methanesulfonate) [Example 48, 5(3)-Amino-6-(2,5-dichlorophenyl)-2,3(2,5)-dihydro-3(5)-imino-2-methyl-1,2,4-triazine methanesulfonate]

inhibition at 10 µM ([4]; assay concentration 10 μM): -2% | inhibition at 99 µM [4]: -3% | IC50 (sodium channel [1]; [8]): 5 µM | melting point: 212 to 215 °C
SMILES: COc1ccc(Cn2nc(-c3cccc(Cl)c3Cl)c(N)nc2=N)cc1 [Example 19, 5(3)-Amino-6-(2,3-dichlorophenyl)-2,3(2,5)-dihydro-3(5)-imino-2-(4-methoxy)phenylmethyl-1,2,4-triazine]

pIC50 (uptake of [14C]guanidine) (sodium channel [1]; Table 8): 5.52 ± 0.03 | IC50 (sodium channel [1]; [7]): 3 µM | melting point: 269 to 271 °C
SMILES: CCn1nc(-c2cc(Cl)cc(Cl)c2Cl)c(N)nc1=N [Example 50]
Hill (uptake of [14C]guanidine) (sodium channel [1]; Table 8): 0.93

melting point: 212 to 214 °C
SMILES: N=c1nc(N)c(-c2cc(Cl)cc(Cl)c2Cl)nn1CCF (as salt: methanesulfonate) [Example 55, 5(3)-Amino-6-(2,3,5-trichlorophenyl)-2,3(2,5)-dihydro-3(5)-imino-2-(2-fluoroethyl)-1,2,4-triazine methanesulfonate]

inhibition at 50 µM [4]: 99% | IC50 (sodium channel [1]; [8]): 155 µM | melting point: 223 to 225 °C
SMILES: Nc1nnc(-c2cc(Cl)cc(Cl)c2)c(N)n1 [Example 42, 3,5-Diamino-6-(3,5-dichlorophenyl)-1,2,4-triazine]

melting point: 283 to 285 °C
SMILES: Cn1nc(-c2ccc(Cl)cc2Cl)c(N)nc1=N (as salt: methanesulfonate) [Example 45, 5(3)-Amino-6-(2,4-dichlorophenyl)-2,3(2,5)-dihydro-3(5)-imino-2-methyl-1,2,4-triazine methanesulfonate]

melting point: 230 to 232 °C
SMILES: Cn1nc(-c2ccccc2)c(N)nc1=N (as salt: methanesulfonate) [Example 46, 5(3)-Amino-6-phenyl-2,3(2,5)-dihydro-3(5)-imino-2-methyl-1,2,4-triazine methanesulfonate]

SMILES: Nc1nnc(-c2cccc(F)c2Cl)c(N)n1 [Example 40, 2-chloro-3-fluorophenyl-1,2,4-triazine-3,5-diamine]
IC50 ([4]; rat liver supernatant): 589 µM | IC50 (sodium channel [1]; [8]): 834 µM | melting point: 244 to 246 °C | IC50 (sodium channel [5]; [10]): 283 µM
